Laboratory results as given in patent US10583119B2, “Compounds, compositions and methods for making the same” (Signum Biosciences, Inc., priority 2008, dated 2020).
“Also recorded” adds a separate entry of the source.

Assays:
[1] = biological target: T1, protein phosphatase specific protein methylesterase (MEase) (Homo sapiens, UniProt Q9Y570); assay: PP2A demethylation with [3H]-SAM and purified proteins (methylesterase activity); assay type: biochemical; conditions: purified methylated PP2A and MEase; read-out: ME (IC50)
T1 construct: made in house
T1 sequence (Q9Y570 1-386): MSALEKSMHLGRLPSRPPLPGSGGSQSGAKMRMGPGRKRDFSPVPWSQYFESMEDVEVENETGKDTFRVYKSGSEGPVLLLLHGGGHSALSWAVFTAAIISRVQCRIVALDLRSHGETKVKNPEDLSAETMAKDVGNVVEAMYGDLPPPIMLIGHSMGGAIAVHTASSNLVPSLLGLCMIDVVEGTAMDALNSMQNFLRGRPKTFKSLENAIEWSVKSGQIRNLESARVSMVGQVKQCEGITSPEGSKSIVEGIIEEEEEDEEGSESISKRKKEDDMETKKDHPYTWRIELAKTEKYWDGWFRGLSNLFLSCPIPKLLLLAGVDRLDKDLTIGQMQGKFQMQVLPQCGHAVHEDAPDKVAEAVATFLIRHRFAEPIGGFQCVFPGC
Description: PP2A (methylated and unmethylated) were eluted with 1.6 mL of Buffer A containing 350 mM NaCl. Fractions (0.2 mL each) were collected and the radioactivity in each fraction was measured using the scintillation counter (LS 6000SE, Beckman). Fractions with highest radioactivity were containing purified methylated PP2A were pooled with a total volume of 0.6 mL-0.8 mL. Purified methylated PP2A (50 nM-100 nM) was incubated with MEase (5 nM-20 nM) in 20 μl-50 μl reaction at room temperature for 30 minutes. The reaction was terminated by adding TCA (2 μl-6 μl) to a final concentration of 10%. Released [^3H]-methanol in supernatants was counted with scintillation counter (LS 6000SE, Beckman).

[2] = test system: N2a Neuroblastoma Cells; assay: Cytotoxicity in N2a neuroblastoma cells (CellTiter 96 AQueous One); assay type: cell-based; conditions: all concentrations tested (1-50 μM)
Description: 2×10^4 N2a cells were plated in each well of a 96-well cell culture plate containing 100 pi EMEM (Gibco), supplemented with 10% FBS (N2a growth medium), and were incubated at 37° C. for 48 hours. On the day of treatment, stock solutions of […] of Compound I-63 in ethanol were further diluted with N2a growth medium to obtain Compound I-63-containing N2a medium with 50 μM, 10 μM, 5 μM and 1 μM Compound I-63. The final concentration of ethanol in all media dilutions was 1%, and therefore 1% ethanol was added to the 0 μM Compound I-63 (untreated) control. The media dilutions were applied to the N2a cells (100 µl per well) and incubated at 37° C. for 4 hours or 24 hours. At the end of the treatment period, cell media was removed and 100 μl of pre-warmed phenol red-free N2a growth media was added to each well. 20 µl of the CellTiter 96® AQueous One Solution (Promega) was added to each well and the dish was incubated at 37° C. for 1-4 hours until visible reddish color develops. The dish was read at a wavelength of 490 nm using a plate reader. N2a cells were grown in 96-well dishes and were treated for 4 hours (♦) or 24 hours (i) with increasing concentrations of Compound I-63. Cell survival was assayed using the CellTiter 96® AQueous One Solution (Promega) using the manufacturer's directions. […]

[3] = test system: phosphorylated Tau; assay: Phosphorylated tau in vivo at four weeks (pS396 Western blot of brain); parameters: species or system mice; conditions: 0.1% in chow, phospho-Serine 396
Description: Swiss Webster mice (9-12 weeks old) were fed ad libitum, either standard rodent chow (Control), or rodent chow formulated with 0.1 g Compound I-63 per 100 g chow (0.1% Compound I-63) or 0.1 g Compound I-62 per 100 g chow (0.1% Compound I-62); water was changed weekly. Mice were housed at 23° C., on a 12 hour light and dark cycle, with 6 mice per cage. At 4 weeks, six mice from the Control, 0.1% Compound I-63 and 0.1% Compound I-62 groups were sacrificed by cervical dislocation, brains removed, snap-frozen in liquid nitrogen, and stored at −80° C. Brains were homogenized in 350 pi of buffer containing 20 mM MOPS-Na, pH 7.2, 1 mM EDTA/DTT, 0.5 mg/L of aprotinin, leupeptin and pepstatin, 100 nM okadaic acid, and clarified by centrifugation (14000 rpm, 10 min, 4° C.). Supernatant protein concentrations were measured by the Bradford method, 4 volumes of the supernatant and 1 volume of 5×SDS sample buffer were mixed and boiled for 2 minutes. Boiled homogenate ([…]) were loaded on 12% polyacrylamide gels, and transferred to nitrocellulose membranes. […] Protein bands were detected with the ECL Plus reagent (GE Healthcare) and blots scanned on a Molecular Dynamics Storm Imager. […]

[4] = test system: Swiss-Webster (wild-type) mice; assay: Glucose metabolism (intraperitoneal glucose tolerance test, body weight) in wild-type mice; assay type: in vivo; conditions: 0.1% in diet for 128 days
Description: The glucose tolerance test (GTT) measures the body's ability to metabolize glucose. It is currently used to diagnose patients with prediabetes disposition and diabetes.
Twenty (20) Swiss-Webster (wild-type) mice were acclimated for 2 weeks. The mice were ear notched for identification and housed in individually and negatively ventilated polycarbonate cages with HEPA filtered air at a density of 6 mice per cage. Bed-o-cob corn cob bedding was used and cages were changed every two weeks. The animal room was lighted entirely with artificial fluorescent lighting, with a controlled 12 h light/dark cycle (7 am to 7 pm light). The normal temperature and relative humidity ranged in the animal rooms are 22±4° C. and 50±15%, respectively. The animal rooms were set to have 15 air exchanges per hour. Filtered tap water, acidified to a pH of 2.8 to 3.2. LabDiet D10001 was provided ad libitum, and leftover food was removed once per week.
Following acclimation, mice are assigned to groups according to diet. • 1. Control Diet (D10001) • 2. Compound I-63 ((D10001 with 0.1% 1-63)
The mice were maintained on the diet for 128 days. […] Mice were weighed and glucose dose calculated for […] body weight. […] Blood glucose levels were measured with the OneTouch UltraSmart electronic glucometer at time point O with tail vein blood. […] Blood glucose was measured at 15, 30, 45, 90 and 120 minutes after glucose injection.

For `CCCCCCCCCCCCCCCCCCCC(=O)NCCc1c[nH]c2ccc(O)cc12` [Compound I-63, N-(2-(5-hydroxy-1H-indol-3-yl)ethyl)icosanamide], the IC50 [1] was < 10 µM, the cell survival ([2]; 4 hours) was “over 85%” and the cell survival ([2]; 24 hours) was “over 85%”. The “lowering of phosphorylated tau levels in the brain compared to control” value [3] was 40%, the “glucose tolerance in intraperitoneal glucose tolerance test” value [4] was “consistently lower glucose levels; also recorded: improved glucose tolerance” and the “incremental area under the curve of blood glucose levels in the glucose tolerance test compared to control diet” value [4] was < 10%.
